Test results from US8367716B2 (priority 2003, dated 2013).

Experiments:
[1] = type: physicochemical
Protocol: c-di-GMP, CGMP and 5′-GMP nucleotides used. c-di-GMP used in the studies in this example was biochemically synthesized in pure form using a recently described novel synthesis method that produces a pure and high yielding preparation of c-di-GMP diammonium salt (FIG. 5A) (Hayakawa et al., 2003). Before use, the purity and stability of lyophilized c-di-GMP was determined by first resuspending the molecule in 0.9% NaCl creating a 2 mM solution then confirmed by HPLC analysis and ESI-TOF MS spectrometry. The cGMP (guanosine 3′, 5′-cyclic monophosphate, Sigma #G7504) and 5′-GMP (guanosine 5′-monophosphate, TCI, Tokyo Kasei Kogyo Co.) nucleotides were also used. Unless otherwise stated, a 4 mM stock solution of each nucleotide in 0.9% NaCl was prepared and stored at 4° C. until needed.
c-di-GMP stability tests. Although the term c-di-GMP is used here, c-di-GMP diammonium salt (and not the free diphosphoric acid) was used for these stability tests. (i) In boiling water: A 2 mM solution of c-di-GMP in water was prepared by dissolving 2.42 mg (3.3 μmol) of c-di-GMP in 1.65 mL of ion-exchanged/ion-free water (prepared by passing distilled water through ion-exchange resins). This solution was heated at 100° C. for 10 min and then concentrated under reduced pressure. The resulting residual was subjected to the HPLC analysis under conditions shown below. (ii) In pH 3 solution: From the 2 mM c-di-GMP aqueous solution described above, 500 μl (containing […] of c-di-GMP) was dissolved in 20 mL of 1 mM HCl to produce a solution with pH 3 (confirmed by pH meter). The resulting solution was stirred at room temperature for 1 h and then neutralized by the addition of 200 mL of a 0.1 mM NaOH. Water was evaporated under reduced pressure and the resulting residue was subjected to HPLC analysis. (iii) In pH 10 solution: From the 2 mM c-di-GMP aqueous solution described above, 500 μl (containing […] of c-di-GMP) was dissolved in 200 mL of a 0.1 mM NaOH aqueous solution to produce a solution with pH 10 (confirmed by pH meter). The resulting solution was stirred at room temperature for 1 h. The reaction was quenched by addition of 20 mL of a 1 mM HCl. Concentration of the resulting neutral solution under reduced pressure gave a residual material that was subjected to the HPLC analysis. The HPLC analysis was performed on a Waters 2695 Separation Module with a Waters 2996 Photodiode Array Detector under the following conditions. Column: Nacalai Tesque COSMOSIL 5C18-AR-II column (4.6 mm (diameter)×250 mm (length)); detection: 254 nm of UV ray; temperature: 40° C.; eluent: A=0.9% NaCl (aq), B=a 20:80 mixture of water:acetonitrile; flow rate:1 mL/min; 0-10 min: A 100%; 10-60 min: linear gradient from A100%/B 0% to A 40% to B 60%.

S. aureus DK825 = assay: Effect on growth rate and cell count of S. aureus; type: cell-based, Staphylococcus aureus
Protocol: Effect on growth rate of S. aureus. S. aureus DK825 was subcultured from glycerol stocks onto a blood agar plate and incubated at 37° C. for 18 h. A single colony was then inoculated into 5 ml TSB broth (supplemented with 0.25% glucose) and incubated at 37° C. for 24 h with shaking at 250 rpm. From a 10^−3 dilution of the overnight culture a 100 μl aliquot was inoculated into tubes containing 5 ml TSB broth resulting in an initial cell count of […] (confirmed by plating). For “treated” samples, an appropriate aliquot of c-di-GMP was added to give 200 μM c-di-GMP (final concentration). As a negative “untreated” control, tubes containing TSB and a similar volume of 0.9% NaCl were included in the studies. At time zero, 50 μl from each sample was plated on blood agar plates to determine the initial cfu/ml. […]

Salmonela enteritidis = assay: Biofilm formation in Salmonela enteritidis; type: cell-based

Nc1nc2c(ncn2C2OC3COP(=O)(O)OC4C(COP(=O)(O)OC3C2O)OC(n2cnc3c(=O)[nH]c(N)nc32)C4O)c(=O)[nH]1 (stereo not shown) [c-di-GMP, 3′,5′-cyclic diguanylic acid]
solubility [1]: soluble
stability in 100 mM ammonium acetate buffer [1]: stable
stability in 100 mM phosphate buffer [1]: stable
stability in 0.9% NaCl solution (monomeric structure) [1]: very stable
stability in physiological saline [1]: stable
stability of 2 mM stock solution in water [1]: formation of an aggregated product
stability of neat (lyophilized) form on storage [1]: formed aggregate molecules
final cell count (S. aureus DK825; 200 μM, 24 h static culture, no difference to untreated): 6×10^8 CFU/ml
effect on growth rate (S. aureus DK825; 200 μM, hourly examination up to 8 h): no obvious effect
inhibition of cell viability (S. aureus DK825; as recalled in Example 5 from Example 3): approximately 1 log
effect on biofilm formation (Salmonela enteritidis): induce or enhance biofilm formation
expression of enterotoxin 1, Down-regulated (S. aureus strain DK825): 0.35 fold
expression of enterotoxin A, Down-regulated (S. aureus strain DK825): 0.54 fold
expression of toxic shock syndrome toxin, Down-regulated (S. aureus strain DK825): 0.45 fold
expression of PBP-2, Up-regulated (S. aureus strain DK825; 200 μM vs untreated control): 2.0 fold
expression of PBP-4, Up-regulated (S. aureus strain DK825; 200 μM vs untreated control): 1.7 fold
expression of agrA (quorum sensing), Up-regulated (S. aureus strain DK825; 200 μM vs untreated control): 5.4 fold
expression of agrB (quorum sensing), Up-regulated (S. aureus strain DK825; 200 μM vs untreated control): 5.8 fold
expression of agrC (quorum sensing), Up-regulated (S. aureus strain DK825; 200 μM vs untreated control): 2.0 fold
expression of agrD (quorum sensing), Up-regulated (S. aureus strain DK825; 200 μM vs untreated control): 2.2 fold
expression of clfA (clumping factor), Down-regulated (S. aureus strain DK825; 200 μM vs untreated control): 0.54 fold
expression of clfB (clumping factor), Down-regulated (S. aureus strain DK825; 200 μM vs untreated control): 0.43 fold
expression of collagen adhesin, Down-regulated (S. aureus strain DK825; 200 μM vs untreated control): 0.55 fold
expression of exfoliative toxin, Down-regulated (S. aureus strain DK825; 200 μM vs untreated control): 0.52 fold
expression of fbnA (fibrinogen binding), Down-regulated (S. aureus strain DK825; 200 μM vs untreated control): 0.66 fold
expression of fnbB (fibronectin binding), Down-regulated (S. aureus strain DK825; 200 μM vs untreated control): 0.47 fold
expression of icaR (intercellular adhesin), Down-regulated (S. aureus strain DK825; 200 μM vs untreated control): 0.62 fold
expression of rsbW (anti-sigmaB), Up-regulated (S. aureus strain DK825; 200 μM vs untreated control): 4.5 fold
expression of saeR (response regulator), Up-regulated (S. aureus strain DK825; 200 μM vs untreated control): 2.5 fold
expression of saeS (histidine kinase), Up-regulated (S. aureus strain DK825; 200 μM vs untreated control): 1.5 fold
expression of vacuolating cytotoxin, Down-regulated (S. aureus strain DK825; 200 μM vs untreated control): 0.56 fold
